ChEMBL document CHEMBL6096664, “Discovery of novel KSP-targeting PROTACs with potent antitumor effects in vitro and in vivo” (Eur J Med Chem, 2025)
pIC50: −log10 of the molar value.

Columns and labels:
HCT-116 [1] = assay: Induction of apoptosis in human HCT-116 cells assessed as late apoptotic cells at 100 nM incubated for 48 hrs by Annexin V-FITC/PI staining based flow cytometry analysis (reference value: 1.36 %); format: functional
HCT-116 [2] = assay: Induction of cell cycle arrest in human HCT-116 cells assessed as accumulation of cells at G1 phase at 10 nM incubated for 24 hrs by RNase A/propidium iodide staining based flow cytometric analysis (reference value: 93.11 %); format: functional
[3] = target: Protein cereblon/Kinesin-like protein KIF11 (Homo sapiens, UniProt P52732+Q96SW2); assay: PROTAC activity at CRBN/KSP in human HCT-116 cells assessed as induction of KSP degradation at 500 nM incubated for 48 hrs by Western blot analysis relative to control; format: cell-based
Protein cereblon/Kinesin-like protein KIF11, sequence (P52732 whole entry, looked up): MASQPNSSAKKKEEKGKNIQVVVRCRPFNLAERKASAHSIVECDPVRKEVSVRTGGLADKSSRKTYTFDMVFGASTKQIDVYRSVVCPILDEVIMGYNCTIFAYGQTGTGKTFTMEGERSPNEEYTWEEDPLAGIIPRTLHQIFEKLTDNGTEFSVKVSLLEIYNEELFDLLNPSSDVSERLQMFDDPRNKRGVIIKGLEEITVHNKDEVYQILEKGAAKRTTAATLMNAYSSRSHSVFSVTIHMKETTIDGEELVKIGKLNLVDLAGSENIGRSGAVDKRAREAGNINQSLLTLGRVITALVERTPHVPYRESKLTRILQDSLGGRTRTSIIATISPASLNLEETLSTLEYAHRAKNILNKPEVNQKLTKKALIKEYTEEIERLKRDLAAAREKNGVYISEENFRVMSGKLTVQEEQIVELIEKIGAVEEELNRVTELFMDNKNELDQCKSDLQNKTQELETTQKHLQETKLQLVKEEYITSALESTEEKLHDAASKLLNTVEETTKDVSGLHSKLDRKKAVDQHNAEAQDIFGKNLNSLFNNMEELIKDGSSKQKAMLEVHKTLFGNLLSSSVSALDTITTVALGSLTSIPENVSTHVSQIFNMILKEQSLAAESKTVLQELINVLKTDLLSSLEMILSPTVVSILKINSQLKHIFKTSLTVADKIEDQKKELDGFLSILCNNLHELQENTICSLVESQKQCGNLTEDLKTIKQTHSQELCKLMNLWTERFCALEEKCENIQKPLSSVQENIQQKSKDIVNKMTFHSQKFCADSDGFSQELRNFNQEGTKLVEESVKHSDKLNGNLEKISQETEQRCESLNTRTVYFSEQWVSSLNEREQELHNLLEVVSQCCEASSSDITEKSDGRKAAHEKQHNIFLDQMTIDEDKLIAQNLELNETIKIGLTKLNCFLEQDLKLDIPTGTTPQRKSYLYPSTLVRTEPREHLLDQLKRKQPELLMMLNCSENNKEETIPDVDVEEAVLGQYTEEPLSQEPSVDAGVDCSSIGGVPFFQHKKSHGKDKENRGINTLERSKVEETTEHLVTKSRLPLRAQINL
Protein cereblon/Kinesin-like protein KIF11, sequence (Q96SW2 whole entry, looked up): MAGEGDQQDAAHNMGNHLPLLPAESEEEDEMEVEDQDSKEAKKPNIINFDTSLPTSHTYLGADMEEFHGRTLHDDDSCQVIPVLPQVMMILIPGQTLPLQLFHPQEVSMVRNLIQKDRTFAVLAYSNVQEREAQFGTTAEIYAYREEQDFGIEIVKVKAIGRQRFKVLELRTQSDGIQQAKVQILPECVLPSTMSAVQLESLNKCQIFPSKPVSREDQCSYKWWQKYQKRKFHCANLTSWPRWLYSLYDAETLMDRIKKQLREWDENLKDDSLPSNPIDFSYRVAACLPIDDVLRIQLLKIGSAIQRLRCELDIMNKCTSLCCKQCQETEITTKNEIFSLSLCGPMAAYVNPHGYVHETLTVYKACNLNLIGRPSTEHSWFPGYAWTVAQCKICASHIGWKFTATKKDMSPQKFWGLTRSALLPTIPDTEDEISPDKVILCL

HCT-116 [4] = assay: Induction of cell cycle arrest in human HCT-116 cells assessed as accumulation of cells at S phase at 100 nM incubated for 24 hrs by RNase A/propidium iodide staining based flow cytometric analysis (reference value: 2.84 %); format: functional
HCT-116 [5] = assay: Antitumor activity against human HCT-116 cells xenografted in female BALB/c nu/nu mouse assessed as reduction in tumor weight at 15 mg/kg, ip measured every 2 days for 14 days relative to control; format: functional; design: scale not given: the % may be the effect or the level left; settings: time 14 day
HCT-116 [6] = assay: Induction of apoptosis in human HCT-116 cells assessed as viable cells at 100 nM incubated for 48 hrs by Annexin V-FITC/PI staining based flow cytometry analysis (reference value: 94.31 %); format: functional; settings: read-out: Activity
HCT-116 [7] = assay: Induction of apoptosis in human HCT-116 cells assessed as viable cells at 10 nM incubated for 48 hrs by Annexin V-FITC/PI staining based flow cytometry analysis (reference value: 94.31 %); format: functional; settings: read-out: Activity
MDA-MB-231 = assay: Antiproliferative activity against human MDA-MB-231 cells assessed as inhibition of cell proliferation measured after 72 hrs by CCK8 assay; format: functional, cell-based; settings: MDA-MB-231, 72 h
[8] = Toxicity in female BALB/c nu/nu nude mouse xenografted with human HCT-116 cells assessed as body weight loss at 7.5 to 15 mg/kg, ip measured every 2 days for 14 days; format: organism-based; settings: in vivo, 336 h, dose 7.5-15 mg/kg, time 14 day

Activity [3]: 82.1% | pIC50 (MDA-MB-231): 7.45
SMILES: COc1ccc(C2(SC[C@H](N)C(=O)NCCCCCCCCNC(=O)COc3cccc4c3C(=O)N(C3CCC(=O)NC3=O)C4=O)c3ccccc3C=Cc3ccccc32)cc1 (some centres undefined)
Activity (HCT-116 [1]): 25.55% | Activity (HCT-116 [2]): 75.34% | Activity (HCT-116 [4]): 14.97% | Activity (HCT-116 [5]): 99% | viability at 0.1 µM (HCT-116 [6]): 29.1% | viability at 0.01 µM (HCT-116 [7]): 57.9% | Activity [8]: Non-toxic
